Assay results taken from patent US5824771A, “Cyclic CRF agonists” (The Salk Institute for Biological Studies, priority 1997, dated 1998).
Entries after “also recorded” stand apart in the source; their conditions may differ. Bridge positions count the residues as written; N and C are the ends. Square brackets hold non-standard residues; d marks the D form. Ends that are not written are not given here. Peptide text beside a SMILES is read from it. Nle = CCCC[C@H](N)C(=O)O

What was measured:
[1] = Relief of inflammation on administration; assay type: in vivo; conditions: administration of the peptide
[2] = background statements; injected peripherally or iv, mammals; cited from earlier work
[3] = test system: ACTH and β-endorphin secretion; conditions: background statements; in vitro and in vivo or iv; cited from earlier work
[4] = background statement; cited from earlier work

| Compound | relief of inflammation, in words [1] | lowering of blood pressure, in words [2] | stimulation of ACTH and β-endorphin secretion / activities, in words [3] | gastric acid production, in words [4] |
| --- | --- | --- | --- | --- |
| CCCC[C@H](NC(=O)[C@H](CCC(=O)O)NC(=O)[C@@H](NC(=O)[C@H](CCCC)NC(=O)[C@H](CC(N)=O)NC(=O)[C@H](CCCNC(=N)N)NC(=O)[C@H](CC(C)C)NC(=O)[C@H](CC(C)C)NC(=O)[C@H](Cc1c[nH]cn1)NC(=O)[C@@H](Cc1ccccc1)NC(=O)[C@@H](NC(=O)[C@H](CC(C)C)NC(=O)[C@H](CC(=O)O)NC(=O)[C@@H](NC(=O)[C@H](CO)NC(=O)[C@@H](NC(=O)[C@H]1CCCN1C(=O)[C@@H]1CCCN1C(C)=O)[C@@H](C)CC)[C@@H](C)CC)[C@@H](C)O)[C@@H](C)CC)C(=O)N[C@@H](C)C(=O)N[C@@H](CCCNC(=N)N)C(=O)N[C@H](C(=O)N[C@@H](CCC(=O)O)C(=O)N[C@@H](CC(N)=O)C(=O)N[C@@H](CCC(=O)O)C(=O)N[C@@H](CCCNC(=N)N)C(=O)N[C@@H](CCC(=O)O)C(=O)N[C@H]1CCC(=O)NCCCC[C@@H](C(=O)N[C@@H](CC(N)=O)C(=O)N[C@@H](CCCNC(=N)N)C(=O)N[C@@H](CCCCN)C(=O)N[C@@H](Cc2ccc(O)cc2)C(=O)N[C@@H](CC(C)C)C(=O)N[C@@H](CC(=O)O)C(=O)N[C@@H](CCC(=O)O)C(=O)N[C@H](C(N)=O)C(C)C)NC(=O)[C@@H](Cc2c[nH]cn2)NC(=O)[C@H](C)NC1=O)[C@@H](C)CC [Example 8 E, (cyclo 30-33)[Ac-Pro^4, D-Pro^5, D-Phe^12, Nle^18,21, Glu^30, D-His^32, Lys^33]-sucker urotensin(4-41)] (Ac-P[dP]ISIDLT[dF]HLLRN[Nle]IE[Nle]ARIENEREEA[dH]KNRKYLDEV-NH2; lactam 27-30) | relieves inflammation | – | – | – |
| CC[C@H](C)[C@H](NC(=O)[C@@H](NC(=O)[C@H](CC(=O)O)NC(=O)[C@H](CC(C)C)NC(=O)[C@H](CC(C)C)NC(=O)[C@H](CC(C)C)NC(=O)[C@H](CCCNC(=N)N)NC(=O)[C@H](CC(N)=O)NC(=O)[C@H](CC(N)=O)NC(=O)[C@H](C)NC(=O)[C@H](C)NC(=O)[C@H](CCC(N)=O)NC(=O)[C@H](CCC(N)=O)NC(=O)[C@H](CCCCN)NC(=O)[C@H](CCC(=O)O)NC(=O)[C@H](CCCCN)NC(=O)[C@H](CCC(=O)O)NC(=O)[C@H](CCC(N)=O)NC(=O)[C@H](CCCCN)NC(=O)[C@H](CCC(=O)O)NC(=O)[C@@H](NC(=O)[C@H](CCC(=O)O)NC(=O)[C@@H](NC(=O)[C@H](CCSC)NC(=O)[C@H](CCCCN)NC(=O)[C@H](CCCNC(=N)N)NC(=O)[C@H](CC(C)C)NC(=O)[C@H](CC(C)C)NC(=O)[C@H](CCC(=O)O)NC(=O)[C@H](CC(C)C)NC(=O)[C@H](CO)NC(=O)[C@H](CC(C)C)NC(=O)[C@H](CC(=O)O)NC(=O)[C@@H](NC(=O)[C@H](CO)NC(=O)[C@@H](NC(=O)[C@@H]1CCCN1C(=O)[C@@H]1CCCN1C(=O)CNC(=O)[C@@H]1CCC(=O)N1)[C@@H](C)CC)[C@@H](C)CC)[C@@H](C)CC)[C@@H](C)CC)[C@@H](C)O)C(N)=O [sauvagine] | – | lower blood pressure | stimulate the secretion of ACTH and β-endorphin | inhibit gastric acid production |
| oCRF: ovine corticotropin releasing factor, a 41-residue amidated peptide; the laboratory Standard (SQEPPISLDLTFHLLREVLEMTKADQLAQQAHSNRKLLDIA-NH2; UniProt P01142 148-188, looked up) | – | substantially lower blood pressure | stimulate the secretion of ACTH and β-endorphin; also recorded: stimulate ACTH and β-endorphin-like activities (β-END-Li) in vitro and in vivo | inhibit gastric acid production |
| r/hCRF: rat/human CRF, a homologous amidated hentetracontapeptide; alternate standard (SEEPPISLDLTFHLLREVLEMARAEQLAQQAHSNRKLMEII-NH2; UniProt P06850 154-194, looked up) | – | substantially lower blood pressure | stimulate ACTH and β-endorphin-like activities (β-END-Li) in vitro and in vivo | inhibit gastric acid production |
